In patent US20070092577A1, “Dietary calcium for reducing the production of reactive oxygen species” (University of Tennessee Research Foundation, priority 2005, published 2007):

How the values were obtained:
IL-6 = IL-6 expression in differentiated Zen-bio human adipocytes; type: cell-based; details: 10 nmol/L, 48 h; p=0.004
Description: (§1) Human pre-adipocytes used in this study were supplied by Zen-Bio (Research Triangle, N.C.). […] The cells are isolated from the stromal vascular fraction of human subcutaneous adipose tissue and differentiated in vitro as follows: […] Preadipocytes were maintained in this differentiation medium for 3 days and subsequently cultured in adipocyte medium in which BRL49653 and MIX were omitted. Cultures were re-fed every 2-3 days till fully differentiated. Cells were incubated in serum free medium overnight before chemical treatment. Chemicals were freshly diluted in adipocyte medium before treatment. […] Cell viability was measured via trypan blue exclusion. Adipocyte and muscle 18s, TNFα, IL-6, IL-8, IL-15 and adiponectin were quantitatively measured using a smart cycler real-time PCR system (Cepheid, Sunnyvale, Calif.) with a TaqMan 1000 Core Reagent Kit (Applied Biosystems, Branchburg, N.J.). […] Reactions of quantitative RT-PCR for standards and unknown samples were also performed according to the instructions of Smart Cycler System (Cepheid, Sunnyvale, Calif.) and TaqMan Real Time PCR Core Kit (Applied Biosystems, Branchburg, N.J.). The mRNA quantitation for each sample was further normalized using the corresponding 18s quantitation.

M-CSF = M-CSF expression in 3T3-L1 adipocytes; type: cell-based, mouse; details: calcitriol 10 nmol/L, 48 hours
Description: (§2) RAW 264 macrophages and 3T3-L1 preadipocytes (American Type Culture Collection) were incubated at a density of 8000 cells/cm2 (10 cm2 dish) and grown in Dulbecco's modified Eagle's medium (DMEM) containing 10% FBS and antibiotics (adipocyte medium) at 37° C. in 5% CO2 in air. Confluent 3T3-L1 preadipocytes were induced to differentiate with a standard differentiation medium consisting of DMEM-F10 (1:1, vol/vol) medium supplemented with 1% FBS, 1 μM dexamethasone, IBMX (0.5 mM) and antibiotics (1% Penicillin-Streptomycin). Preadipocytes were maintained in this differentiation medium for 3 days and subsequently cultured in adipocyte medium. […]
Cell viability was measured via trypan blue exclusion.
(§3) Adipocyte and muscle 18s, CD14, TNFα, MIP, M-CSF, IL-6 and MCP-1 were quantitatively measured using a Smart Cycler Real Time PCR System (Cepheid, Sunnyvale, Calif.) with a TaqMan 1000 Core Reagent Kit (Applied Biosystems, Branchburg, N.J.). […] Reactions of quantitative RT-PCR for standards and unknown samples were also performed according to the instructions of Smart Cycler System (Cepheid, Sunnyvale, Calif.) and TaqMan Real Time PCR Core Kit (Applied Biosystems, Branchburg, N.J.). The mRNA quantitation for each sample was further normalized using the corresponding 18s quantitation.

IL-8 = IL-8 expression in differentiated Zen-bio human adipocytes; type: cell-based; details: 10 nmol/L, 48 h; p<0.001
Description: as §1

3T3-L1 adipocytes = assay: Mouse cytokine antibody array of culture medium; type: cell-based
Description: RAW 264 macrophages and 3T3-L1 preadipocytes (American Type Culture Collection) were incubated at a density of 8000 cells/cm2 (10 cm2 dish) and grown in Dulbecco's modified Eagle's medium (DMEM) containing 10% FBS and antibiotics (adipocyte medium) at 37° C. in 5% CO2 in air. Confluent 3T3-L1 preadipocytes were induced to differentiate with a standard differentiation medium consisting of DMEM-F10 (1:1, vol/vol) medium supplemented with 1% FBS, 1 μM dexamethasone, IBMX (0.5 mM) and antibiotics (1% Penicillin-Streptomycin). Preadipocytes were maintained in this differentiation medium for 3 days and subsequently cultured in adipocyte medium. Cultures were re-fed every 2-3 days to allow 90% cells to reach fully differentiation for 3T3-L1 adipocytes or grow to a confluence for RAW 264 before conducting chemical treatment.
Human adipocytes (Zen-Bio, Inc.), 3T3-L1 adipocytes, RAW264 macrophages were obtained and co-cultured by using transwell inserts with 0.4 μm porous membranes (Corning) to separate adipocytes and macrophages. All data are expressed as mean±SEM. Data were evaluated for statistical significance by analysis of one-way or two-way variance (ANOVA; means with different letter differ, p<0.05).
A TansSignal™ mouse cytokine antibody array kit (Panomics, Fremont, Calif.) was used to detect cytokine protein released in culture medium according to the manufacture's instruction. […]

MIP = MIP expression in 3T3-L1 adipocytes; type: cell-based, mouse; details: calcitriol 10 nmol/L, 48 hours
Description: as §2
(§4) Cells were washed with fresh adipocyte medium, re-fed with medium containing the indicated treatments, and incubated at 37° C. in 5% CO2 for 48 hours before analysis. Cell viability was measured via trypan blue exclusion.
as §3, with “The mRNA quantitation for each sample was further normalized using the corresponding 18s quantitation.” left out

CD14 = CD14 expression in human adipocytes; type: cell-based; details: calcitriol 10 nmol/L, 48 hours; p=0.008
Excerpt: Cell culture: Human preadipocytes used in this study were supplied by Zen-Bio (Research Triangle, N.C.). Preadipocytes were inoculated in DMEM/Ham's F-10 medium (DMEM-F10) (1:1, vol/vol) containing 10% FBS, 15 mmol/L HEPES, and antibiotics at a density of 30,000 cells/cm^2. Confluent monolayers of preadipocytes were induced to differentiate with a standard differentiation medium consisting of DMEM-F 10 (1:1, vol/vol) medium supplemented with 15 mmol/L HEPES, 3% FBS, 33 μmol/L biotin, 17 μmol/L pantothenate, 100 nmol/L insulin, […] methylisobutylxanthine, 1 μmol/L dexamethasone, 1 μmol/L BRL49653, and antibiotics. […]
as §4
as §3, with “The mRNA quantitation for each sample was further normalized using the corresponding 18s quantitation.” left out

adiponectin = assay: Adiponectin expression in differentiated Zen-bio human adipocytes; type: cell-based; details: 10 nmol/L 1α, 25-(OH)2-D3 or 10 μmol/L nifedipine, 48 h; p=0.377
Description: as §1

MIF = MIF expression in mouse (3T3-L1) adipocytes; type: cell-based; details: calcitriol 10 nmol/L, 48 hours
Description: as §2, §4
as §3, with “The mRNA quantitation for each sample was further normalized using the corresponding 18s quantitation.” left out

In the case of `C=C1/C(=C\C=C2/CCC[C@]3(C)[C@@H]([C@H](C)CCCC(C)(C)O)CC[C@@H]23)C[C@@H](O)C[C@@H]1O` [calcitriol, 1, 25-Dihydroxyvitamin D], the “stimulation of IL-6 expression” value (IL-6) is reported as 53%, the “effect on M-CSF expression” value (M-CSF) is reported as “markedly stimulate” and the “stimulation of IL-8 expression” value (IL-8) is reported as 49%. For the same compound, the “effect on inflammatory cytokine production” value (3T3-L1 adipocytes; co-culture of 3T3-L1 adipocytes with RAW264 macrophages) was “further stimulated inflammatory cytokine production”, the “effect on release of inflammatory cytokine proteins” value (3T3-L1 adipocytes; differentiated 3T3-L1 adipocytes cultured alone) was “up-regulated production of multiple inflammatory cytokine proteins” and the “effect on MIP expression” value (MIP) was “markedly stimulate”. The “increase of CD14 expression” value (CD14) was 33%, the “effect on adiponectin expression” value (adiponectin) was “no effect” and the “increase of MIF expression” value (MIF) was 50%.
